Experimental data taken from US20080038382A1 (priority 2004, published 2008).
Read-outs that look alike come from different tables or passages of the source.

Experiments:
SARS-CoV = conditions: background, cited sources; cited from earlier work
RSV S2 = type: cell-based; conditions: 100 μg/ml
SARS CoV = type: cell-based; conditions: for mean number of plaques: 3 days incubation at 37° C., vero C1008 cells; for plaques as % of virus control: virus control = 100%

Cc1cccc(C)c1OCC(=O)N[C@@H](Cc1ccccc1)[C@@H](O)C[C@H](Cc1ccccc1)NC(=O)[C@H](C(C)C)N1CCCNC1=O [Lopinavir]
activity against SARS virus (reported in literature/news) (SARS-CoV): partially active

CCOC(=O)/C=C/[C@H](C[C@@H]1CCNC1=O)NC(=O)[C@@H](CC(=O)[C@@H](NC(=O)c1cc(C)on1)C(C)C)Cc1ccc(F)cc1 [AG7088]
activity against SARS virus (reported in literature/news) (SARS-CoV): failed to inhibit virus

NC(=O)c1ncn([C@@H]2O[C@H](CO)[C@@H](O)[C@H]2O)n1 [Ribavirin]
protection of the cells against RSV (RSV S2): did not protect | mean number of plaques (SARS CoV; Ribavirin 10 μg/ml): mean 114.75 | plaques as % of virus control (SARS CoV; Ribavirin 10 μg/ml): (97.5%) | mean number of plaques (SARS CoV; Ribavirin 100 μg/ml): mean 87.25 | plaques as % of virus control (SARS CoV; Ribavirin 100 μg/ml): (74.1%) | plaque size compared with controls (SARS CoV; higher concentrations (Ribavirin 100 μg/ml, PYN5C 200 μg/ml)): smaller than for the controls | activity against SARS virus (reported in literature/news) (SARS-CoV): appear to be efficacious

Cc1c(O)cccc1C(=O)N[C@@H](CSc1ccccc1)[C@H](O)CN1C[C@H]2CCCC[C@H]2C[C@H]1C(=O)NC(C)(C)C [Nelfinavir]
activity against SARS virus (reported in literature/news) (SARS-CoV): partially active

CC1(C)[C@@H](O[C@H]2O[C@H](C(=O)O)[C@@H](O)[C@H](O)[C@H]2O[C@@H]2O[C@H](C(=O)O)[C@@H](O)[C@H](O)[C@H]2O)CC[C@]2(C)[C@H]3C(=O)C=C4[C@@H]5C[C@@](C)(C(=O)O)CC[C@]5(C)CC[C@@]4(C)[C@]3(C)CC[C@@H]12 [glycyrrhizin]
activity against SARS virus (reported in literature/news) (SARS-CoV): appear to be efficacious
